How the values were obtained:
Jurkat cells = assay: Measurement of cell proliferation (Jurkat cell), XTT assay; type: cell-based; details: Homo sapiens, Jurkat; for inhibition at 1 µM: compound at 1 uM, read-out: % inh Jurkat_cells @ 1 uM (%); for EC50: 72 h, XTT cell viability
Description: See also Roehm, N et al [1991] An improved colorimetric assay for cell proliferation and viability utilizing the tetrazolium salt XTT. J. Immunol. Methods 142:257-265.
Culture Jurkat cells in T-25 flasks at a density of 0.2×10^6/ml 2-3 days before the day of experiment set up.
Centrifuge Jurkat T-cell suspension at 1200 rpm for 10 minutes and resuspend cells again in fresh RPMI medium with 10% FBS.
Count the cells and dilute suspension to a density of 2×10^6 cells/ml. Seed 50 μL of this suspension in each well of a 96 well plate (100,000 cells per well). Keep the edges of the plate empty to avoid evaporation.
Serially dilute DMSO stocks of compounds to get different concentrations for an EC50 curve. 50 μL of compound diluted in media (2× concentration required in well) is added to each well. DMSO concentration should be kept constant at 0.25-0.5% for all wells.
Typically, for all compounds with IC50<1 μM, compound concentration can start at 10 μM followed by half log dilutions for a total of 8-10 concentrations. Each concentration has to be tested in triplicate.
Include controls such as cells without compound (with same DMSO concentration as compound wells), and media control
Incubate the 96 well plate in a CO2 incubator at 37° C. for 72 hrs before determining cell viability using XTT assay
XTT assay: to each well, add 50 μL of 1 mg/ml XTT solution with 20 μl of PMS/mL. Read the plates after 2 hours at 465 nm using the spectrophotometer. XTT reading for media without cells is used as background reading.
Calculate % cell viability assuming that the cells without compound are 100% viable.
Plot % cell viability as a function of concentration and determine EC50 by using software such as Graph Pad Prism to fit the curve.

DHODH = DHODH (Homo sapiens (Human), UniProt Q02127); assay: DHODH activity assay (coupled enzyme assay, DCIP reduction, absorbance at 610 nm); type: biochemical; details: for inhibition at 10 µM: compound at 10 uM, read-out: inh @ 10 uM hDHODH (%)
Chain of DHODH (Q02127 whole entry): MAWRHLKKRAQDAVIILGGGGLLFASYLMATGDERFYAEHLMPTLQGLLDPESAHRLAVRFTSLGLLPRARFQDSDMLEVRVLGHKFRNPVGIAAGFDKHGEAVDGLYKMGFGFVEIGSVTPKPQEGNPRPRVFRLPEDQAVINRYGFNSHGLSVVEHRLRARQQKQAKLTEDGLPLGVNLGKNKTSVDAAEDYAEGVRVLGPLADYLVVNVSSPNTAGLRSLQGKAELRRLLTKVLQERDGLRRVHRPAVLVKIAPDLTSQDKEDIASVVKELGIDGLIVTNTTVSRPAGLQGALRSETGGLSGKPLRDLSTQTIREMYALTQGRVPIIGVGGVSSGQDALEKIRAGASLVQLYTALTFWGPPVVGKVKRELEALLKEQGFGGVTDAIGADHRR
Description: The DHODH activity assay is a coupled enzyme assay in which oxidation of DHO and subsequent reduction of ubiquinone are stoichiometrically equivalent to the reduction of DCIP ([…]). The reduction of DCIP is accompanied by a loss of absorbance at 610 nm.
Buffer Preparation: 50 mM tris HCl, 150 mM KCl, and pH 8.0, 0.8% triton.
5 μL of Dimethyl sulfoxide or a compound of formula I in DMSO solution was added to the wells of a 96 well plate. Compounds of formula I were measured at 10 μM.
Protein along with buffer was added, so that the total volume including the DMSO was 87 μL. Compound and protein were incubated for half an hour at room temperature after mixing. 5 μL of 20 mM solution of L-Dihydroorotic acid, 5 μL of 2 mM solution of Decylubiquinone and 3 μL of 2 mM solution of 2,6-Dichloroindophenol sodium salt hydrate were added to the above solution (total assay volume 100 μL). The mixture was stirred for 2 min and absorbance was recorded at every 10 min at 610 nanometers.
Percent Inhibition is Calculated as Follows
Positive control contains DMSO, buffer, enzyme and substrates
No Enzyme reaction contains DMSO, buffer and substrates
IC50 determination: • A 2 mM DMSO stock of the compound of formula I to be examined was prepared. ⅓rd dilutions were made as follows:
5 μL of each stock of compound of formula I (solution indicated in column 4 of table) was used for each 100 μL assay. Therefore, 5 μL of the 2 mM stock provided 100 μL of 100 μM solution of compound of formula I, when made up with buffer, protein and substrate. See also: Ulrich et al. (2001) Eur. J. Biochem. 268, 1861-1868.

Compound	inhibition at 10 µM (DHODH)	IC50 (DHODH)	EC50 (Jurkat cells)	inhibition at 1 µM (Jurkat cells)
Cc1cc(C(=O)O)c2nc(-c3ccc(-c4ccc(OCCCN5CCOCC5)cc4)cc3)[nH]c2c1 [I87]	74.1%	3020 nM		35.7%
O=C(O)c1cccc2nc(-c3cccc4ccccc34)[nH]c12 [I39]	19.9%			12.3%
O=C(O)c1cccc2[nH]c(-c3ccc(-c4ccncc4)cc3)nc12 [I57]	58%			12.6%
Cc1cc(C(=O)O)c2[nH]c(-c3ccc(-c4ccc(F)cc4F)cc3)nc2c1 [I33]	91.3%	1420 nM		50.5%
O=C(O)c1cccc2[nH]c(-c3ccc(Nc4ccccc4)cc3)nc12 [I55]	33.2%	27100 nM		6.8%
Cc1cc(C(=O)O)c2nc(-c3ccc(Oc4c(F)c(F)c(F)c(F)c4F)cc3)[nH]c2c1 [I72, 6-Methyl-2-(4-pentafluorophenyloxy-phenyl)-1H-benzoimidazole-4-carboxylic acid]	38%			9%
O=C(O)c1cccc2[nH]c(-c3ccc(-c4ccsc4)cc3)nc12 [I22]	57.3%			15.3%
Cc1cc(C(=O)O)c2c(c1)nc(-c1c(F)c(F)c(-c3ccc(O)cc3)c(F)c1F)n2CCO [I94]	89.7%	78 nM		82.5%
O=C(O)c1cccc2nc(-c3ccc(-n4ccccc4=O)cc3)[nH]c12 [I63]	5.3%			1.4%
Cc1cc(C(=O)O)c2nc(-c3c(F)c(F)c(-n4c(C)ccc4C)c(F)c3F)[nH]c2c1 [I82, 2-[4-(2,5-Dimethyl-pyrrol-1-yl)-2,3,5,6-tetrafluoro-phenyl]-6-methyl-1H-benzoimidazole-4-carboxylic acid]	111%	5.6 nM		106%
O=C(O)c1cc(F)cc2nc(-c3ccc4cc[nH]c4c3)[nH]c12 [I37]	13.7%			6.9%
Cc1cc(C(=O)O)c2nc(-c3ccc(-c4cnn(Cc5ccccc5)c4)cc3)[nH]c2c1 [I111]	91%	155 nM		62%
Cc1cc(C#N)c2nc(-c3c(F)c(F)c(-c4ccccc4)c(F)c3F)[nH]c2c1 [I109]	87%	1650 nM		49%
Cc1cc(C(=O)O)c2[nH]c(-c3c(F)c(F)c(-c4cccc(OCc5ccccc5)c4)c(F)c3F)nc2c1 [I105]	95.8%	13.6 nM		91.9%
O=C(O)c1cccc2[nH]c(-c3c(F)c(F)c(-c4ccccc4)c(F)c3F)nc12 [I21]	97.3%	38 nM	238 nM	92.4%
O=C(O)c1cccc2cc(-c3ccc(-c4ccccc4)cc3)[nH]c12 [I61]	94.8%	595 nM	202 nM	67.2%
O=C(O)c1cccc2[nH]c(-c3ccc(Oc4ccccn4)cc3)nc12 [I70, 2-[4-(Pyridin-2-yloxy)-phenyl]-1H-benzoimidazole-4-carboxylic acid]	58.6%			14.6%
Cc1cc(C(=O)O)c2[nH]c(-c3ccc(-c4ccccc4F)cc3F)nc2c1 [I25]	94%	172 nM	98 nM	82%
O=C(O)c1cccc2[nH]c(-c3ccc(N4CCCCCC4=O)cc3)nc12 [I81, 2-[4-(2-Oxo-azepan-1-yl)-phenyl]-1H-benzoimidazole-4-carboxylic acid]	17.9%			6.7%
O=C(O)c1cccc2[nH]c(-c3ccc(-c4ccccc4)nc3)nc12 [I50]	64.7%			21%
O=C(O)c1cccc2[nH]c(-c3ccc(-c4cccc(OC(F)(F)F)c4)cc3)nc12 [I18]	89%	1260 nM		43.1%
Cc1cc(C(=O)O)c2nc(-c3ccc(Oc4ccccn4)cc3)[nH]c2c1 [I71, 6-Methyl-2-[4-(pyridin-2-yloxy)-phenyl]-1H-benzoimidazole-4-carboxylic acid]	75.5%	4380 nM		28.3%
O=C(O)c1cc(F)cc2nc(-c3ccc(-c4ccccc4)cc3F)[nH]c12 [Example 29, 6-Fluoro-2-(3-fluoro-biphenyl-4-yl)-3H-benzoimidazole-4-carboxylic acid]	93.4%			71.6%
Cc1cc(C(=O)O)c2[nH]c(-c3ccc(Oc4ccc(C#N)cc4)cc3)nc2c1 [I78, 2-[4-(4-Cyano-phenoxy)-phenyl]-6-methyl-3H-benzoimidazole-4-carboxylic acid]	58.5%			22.2%

More lines, main results first:

inhibition at 10 µM (DHODH)	IC50 (DHODH)	EC50 (Jurkat cells)	Compound	inhibition at 1 µM (Jurkat cells)
47.2%			Cc1cc(C(=O)O)c2nc(-c3ccc(-c4ccc(OCCCN5CCCC5)cc4)cc3)[nH]c2c1 [I152]	23.8%
86%			Cc1cc(C(=O)O)c2nc(-c3ccc(-c4ccc(Oc5ccccn5)cc4)cc3)[nH]c2c1 [I171]	35%
40.4%			O=Cc1ccc(-c2ccc(-c3nc4c(C(=O)O)cccc4[nH]3)cc2)cc1 [I181]	9.4%
40.7%			Cc1cc(C(=O)O)c2nc(-c3ccc(-c4ccccc4)s3)[nH]c2c1 [I191]	17.6%
84.7%	1050 nM		Cc1cc(C(=O)O)c2nc(-c3ccc(-c4ccc(Oc5ccccc5C=O)cc4)cc3)[nH]c2c1 [I142]	54.5%
49.1%			Cc1cc(C(=O)O)c2[nH]c(-c3ccc(-c4ccc(OCCN5CCCCC5)cc4)cc3)nc2c1 [I154]	8.7%
53.2%			Cc1cc(C(=O)O)c2nc(C#Cc3ccc(OCc4ccccc4)cc3)[nH]c2c1 [I166]	13.4%
74.7%			O=C(O)c1cccc2[nH]c(-c3ccc(-c4cccs4)cc3)nc12 [I192]	26.1%
45%			COC(=O)c1cc(C)cc2[nH]c(-c3c(F)c(F)c(-c4ccccc4)c(F)c3F)nc12 [I176]	7%
95.6%	314 nM		Cc1cc(C(=O)O)c2nc(-c3c(F)c(F)c(-c4ccc(F)c(F)c4)c(F)c3F)[nH]c2c1 [I145]	75.8%
89.9%	755 nM		Cc1cc(C(=O)O)c2nc(-c3ccc(-c4ccc(OCc5cccnc5)cc4)cc3)[nH]c2c1 [I120]	66.1%
32.1%			Cc1cc(C(=O)O)c2[nH]c(-c3ccc(-c4ccccc4)cc3)cc2c1 [I187]	15.3%
30.5%			O=Cc1ccc(Oc2ccc(-c3ccc(-c4nc5c(C(=O)O)cccc5[nH]4)cc3)cc2)cc1 [I180]	9.8%
85%	2030 nM		Cc1cc(C(=O)O)c2nc(-c3ccc(-c4ccc(Oc5ccccc5C#N)cc4)cc3)[nH]c2c1 [I112]	49%
85%			O=C(O)c1cccc2[nH]c(-c3ccc(-c4ccccc4O)cc3)nc12 [I168]	34%
108%	401 nM		Cc1cc(C(=O)O)c2[nH]c(-c3ccc(-n4c(C)ccc4C)cc3)nc2c1 [I121]	70.7%
88%	1200 nM		Cc1cc(C(=O)O)c2nc(-c3ccc(-c4cccc(OCc5ccccc5)c4)cc3)[nH]c2c1 [I115]	52%
76.1%	3800 nM		O=C(O)c1cccn2cc(-c3ccc(-c4ccccc4)cc3)nc12 [I138]	44.8%
